Test results reported in BindingDB's records for doi:10.1021/np4008798 (The Chinese University of Hong Kong, 2014).
pKi: −log10 of the molar value.

Assay: Inhibition of tyrosinase in mouse Melan-a cells assessed as decrease in L-DOPA Vmax at 60 uM by Lineweaver-Burk plot

pKi: 2.51
Compound: OC[C@H]1O[C@@H](Oc2c(O)cc(O)cc2/C=C/c2ccc(O)cc2)[C@H](O)[C@@H](O)[C@@H]1O
